Source: patent US20250127889A1, “IMMUNOSTIMULATORY COMPOSITION” (Reiko SHINKURA, priority 2021, published 2025)

Key:
[1] = tested on: CD11b expression in splenic B cells; assay: CD11b expression in stimulated splenic B cells in the presence of TLR and NOD2 inhibitors; format: cell-based, Balb/c mice
TNF-α = assay: Oral adjuvant with OVA as antigen, serum TNF-α ELISA; format: in vivo, C57BL/6 mice; conditions: oral immunization with OVA 1 mg 3 times every 2 weeks, blood on second day after third immunization
Protocol: Serum TNF-α levels were measured in accordance with the protocol of mouse TNF-α ELISA kit (Invitrogen Corporation, BMS607-3).

[2] = tested on: CD11b expression in splenic naive B cells; assay: Stimulation of splenic naive B cells in vitro, CD11b expression by flow cytometry; format: cell-based, Balb/c mice
Protocol: (§1) Splenic B cells were negatively sorted from the spleens of 8-week-old Balb/c mice using a B cell isolation kit (Miltenyi Biotec B.V. & Co. KG). The splenic B cells (concentration: 5×10^5/ml) were cultured in RPMI1640 medium, and 13 types of independent stimuli were each applied thereto. Anti-mouse IgM (15 μg/ml; Jackson ImmunoResearch Laboratories Inc.) • 2. Anti-mouse-CD40 (HM40-3, 500 ng/ml; manufactured by BioLegend, Inc.) • 3. BAFF (50 ng/ml; BioLegend, Inc.) • 4. Pam3CSK4 (1 μg/ml, InvivoGen) • 5. Poly I:C (25 ng/ml, InvivoGen) • 6. LPS (50 ng/ml, Sigma-Aldrich, Inc.) • 7. Flagellin (20 ng/ml, Sigma-Aldrich, Inc.) • 8. Imiquimod (R837, 5 ng/ml; InvivoGen) • 9. CpG (20 μg/ml, GeneDsign Inc.) • 10. […] Heat-killed S. enterica (10^8 CFU/ml) • 12. Heat-killed B. bifidum (10^7 CFU/ml) • 13. Heat-killed B. breve (10^7 CFU/ml)
For MDP stimulation, purified splenic B cells (5×10^5/ml) were cultured in RPMI1640 medium supplemented with N-acetylmuramyl-L-alanyl-D-isoglutamine hydrate (1 μg/ml; Sigma-Aldrich Inc.).

OVA-specific IgA = assay: Oral immunization with OVA plus adjuvant, ELISA of OVA-specific IgA in stools; format: in vivo, mice; conditions: OVA 1 mg with or without adjuvant on Day 0 and Day 16, stools Day 21
Protocol: Stools were collected on Day 21, and OVA-specific antibody measurement was performed by enzyme-linked immunosorbent assay (ELISA).
The stools were suspended in 10-times weight/volume (w/v) PBS. After performing centrifugation (8,000 g, 15 minutes), the supernatant was collected as a fecal extract. A plate was precoated with 1 mg/ml OVA overnight, followed by blocking with PBS containing 1% (w/v) bovine serum albumin at room temperature for 1 hour. Then, a serially diluted fecal extract was added to the plate, and the plate was incubated at room temperature for 1 hour. Relative avidity of IgA was detected using alkaline phosphatase-labeled goat anti-mouse IgA (manufactured by Southern Biotech). After incubation overnight at 4° C., optical density (OD) values at 405 nm were measured using TriStar Multimode Reader LB 942 (manufactured by Berthold Technologies GmbH & Co. KG).

splenic naive B cells = assay: B cell proliferation / number after in vitro stimulation; format: cell-based, Balb/c mice; conditions: compared to B cells stimulated with anti-IgM, anti-CD40, BAFF, poly I:C, flagellin, imiquimod
Protocol: as §1

itgam (CD11b) = assay: qPCR analysis of itgam in B cells after stimulation; format: cell-based, Balb/c mice
Protocol: About 1×10^4 PP GC B cells (PNA^hiB220^+ cells) and about 1×10^4 non-GC PP B cells (PNA^loB220^+) were each sorted. RNAs were extracted from the isolated cells using NucleoSpin RNA XS (Takara Bio Inc.), and cDNAs were synthesized using GoScript (registered trademark) Reverse Transcriptase (Promega Corporation). Using KAPA SYBR (registered trademark) FAST qPCR Master Mix (2×) Kit (Kapa Biosystems, Inc.), real-time PCR was performed in triplicate on an optical 384-well PCR plate (F. Hoffmann-La Roche Ltd) using LightCycler 480 (F. Hoffmann-La Roche Ltd). Gene expression levels were normalized to the expression level of the housekeeping gene β-actin. The following primers were used for the analysis.
Splenic B cells were negatively sorted from the spleens of 8-week-old Balb/c mice using a B cell isolation kit (Miltenyi Biotec B.V. & Co. KG). The splenic B cells (concentration: 5×10^5/ml) were cultured in RPMI1640 medium, and 13 types of independent stimuli were each applied thereto. Anti-mouse IgM (15 μg/ml; Jackson ImmunoResearch Laboratories Inc.) • 2. Anti-mouse-CD40 (HM40-3, 500 ng/ml; manufactured by BioLegend, Inc.) • 3. BAFF (50 ng/ml; BioLegend, Inc.) • 4. Pam3CSK4 (1 μg/ml, InvivoGen) • 5. Poly I:C (25 ng/ml, InvivoGen) • 6. LPS (50 ng/ml, Sigma-Aldrich, Inc.) • 7. Flagellin (20 ng/ml, Sigma-Aldrich, Inc.) • 8. Imiquimod (R837, 5 ng/ml; InvivoGen) • 9. […]

PP GC = assay: In vivo imaging of transplanted iGB cells induced by pre-stimulation (entry into PP GC); parameters: species or system Balb/c mice; conditions: splenic naive B cells pre-stimulated 3 days, cultured on 40LB cells 4 days, injected i.v.
Protocol: Then, 1×10^5 B220^+ B cells were isolated from the stimulated cells, and subsequently, the cells were seeded onto 40LB feeder cells supplemented with rIL-4 (1 ng/ml; BioLegend, Inc.) to induce iGB cells. As a control group, splenic naive B cells not subjected to stimulation were seeded onto the 40LB feeder cells supplemented with rIL-4 (1 ng/ml; BioLegend, Inc.). After culturing for 4 days, naive B-40LB cells, pam3CSK4-40LB cells, E. coli-40LB, IgM-40LB, and CpG-40LB cells of 3×10^5 iGB cells (B220^+) were isolated, labeled with CellTracker Orange CMTMR fluorescent dye (Invitrogen Corporation), and then separately injected intravenously into mice (Balb/c, 8 to 12 weeks old) together with 10 μg of AF488 anti-mouse MAdCAM-1 (BioLegend, Inc. mAb MECA-367) to identify HEV. Under anesthesia, 1 μg of AF647 anti-mouse IgA (Southern Biotech) was directly injected into the PPs of the same mice into which iGB cells were transferred, to stain the IgA^+ cells for GC identification. Localization of intravenously injected labeled iGB cells was observed using a microscope LSM880 (Carl Zeiss AG) and ZEN 2009 (Carl Zeiss AG) analysis software.

[3] = tested on: PNAhighB220+ PP GC B cells; assay: Oral administration of heat-killed bacteria or pam3CSK4 to WT mice, PP GC B cells after 2 days; conditions: within 2 days
Protocol: Mice orally administered with 100 μl of PBS were prepared as controls. 2 days later, the PPs of these mice were excised, and B cells in the GCs were analyzed using Spectral Cell Analyzer SA3800 (Sony Biotechnology Inc.), as described above.

## CN(CCc1nc2ccccc2n1CC(=O)Nc1ccc2c(c1)CCC2)C(=O)c1ccccc1 [NOD2 inhibitor]
[1]; NOD2 inhibitor 30 μM
  CD11b expression in B cells stimulated with pam3CSK4 and heat-killed E. coli with inhibitor: strongly suppressed

## CCOC(=O)C1=CCCC[C@H]1S(=O)(=O)Nc1ccc(F)cc1Cl [TLR4 inhibitor]
[1]; inhibitor 1 μM, pam3CSK4 1 μg/ml, heat-killed E. coli 10^7 CFU/ml
  proportion of CD11b+ B cells stimulated with pam3CSK4 and heat-killed E. coli when inhibitor was used: did not increase

## CpG-ODN1826
TNF-α
  serum TNFα concentration: cause increase

## N-acetylmuramyl-L-alanyl-D-isoglutamine hydrate [MDP]
[2]; purified splenic B cells, MDP 1 μg/ml
  induction of CD11b expression by NOD2 ligand: did not induce

## OVA: ovalbumin, orally administered model antigen
OVA-specific IgA
  OVA-specific IgA in the stools: did not increase

## pam3CSK4
[2]; splenic naive B cells, 3 days stimulation
  proportion of CD11b+ B cells in stimulated B cells: 27.6%
Splenic naive B cells
  number of B cells after 3 days of culturing: significantly increased
Itgam (CD11b)
  expression of itgam (CD11b) in B cells: increased
PP GC
  entry into GC of iGB cells stimulated in advance, after intravenous injection into mice: most of the cells entered GC
OVA-specific IgA
  OVA-specific IgA in the stools: increased
[3]
  number of PP GC B cells: increased
  proportion of PP GC B cells: increased

B1: BAFF: B-cell activating factor, mimics interaction with DCs (protein, UniProt Q9WU72 127-309, looked up)
Tumor necrosis factor ligand …: AFQGPEETEQDVDLSAPPAPCLPGCRHSQHDDNGMNLRNIIQDCLQLIADSDTPTIRKGTYTFVPWLLSFKRGNALEEKENKIVVRQTGYFFIYSQVLYTDPIFAMGHVIQRKKVHVFGDELSLVTLFRCIQNMPKTLPNNSCYSAGIARLEEGDEIQLAIPRENAQISRNGDDTFFGALKLL
[2]; in vitro stimulation, 3 days culture, flow cytometry
  induction of CD11b expression in naive splenic B cells: did not induce
